The source of these data is patent publication US11103581B2, “Methods and compositions for self-regulated release of active pharmaceutical ingredient” (Acura Pharmaceuticals, Inc., priority 2015, dated 2021).

Series [1] in a line: pH monitoring of calcium carbonate antacid tablets in HCl dissolution vessel. The settings on record: five tablets, 25 mEq of HCl. In kind it is physicochemical. On the procedure:
Two dissolution vessels were prepared: one vessel contained 25 mEq of HCl and a single commercially available calcium carbonate antacid tablet (Tums®), and the other vessel contained 25 mEq of HCl and five calcium carbonate antacid tablets. […] Calcium carbonate has shown a capability as a pH modifier and pH dependent solubility.

The conditions of series [2]: acid media pH 1. Here is the method:
Thus, sodium bicarbonate was added to a prototype formulation primarily to control rapid pH elevation and calcium carbonate for a more sustained control of elevated pH.

In the case of `O=C([O-])[O-].[Ca+2]` [calcium carbonate], the “pH reached in 10 minutes” value in series [1] is 5.

On to `O=C([O-])O.[Na+]` [sodium bicarbonate], for which, in series [2], the “time to raise acid media from pH 1 to pH 6” value was “less than 2 minutes”.
